Measured values taken from ChEMBL document CHEMBL1765029, “Synthesis and biological evaluation of estradiol linked pyrrolo[2,1-c][1,4]benzodiazepine (PBD) conjugates as potential anticancer agents” (2011).

Tests used:
Assay type in all cases: functional
A2780 = test: Cytotoxicity against human A2780 cells by sulforhodamine B method
KB = test: Cytotoxicity against human KB cells by sulforhodamine B method
HOP-62 = test: Cytotoxicity against human HOP62 cells by sulforhodamine B method
SiHa = test: Cytotoxicity against human SiHa cells by sulforhodamine B method
PC-3 = test: Cytotoxicity against human PC3 cells by sulforhodamine B method
A549 = test: Cytotoxicity against human A549 cells by sulforhodamine B method
COLO 205 = test: Cytotoxicity against human COLO205 cells by sulforhodamine B method
MCF7 = test: Cytotoxicity against human MCF7 cells by sulforhodamine B method
[1] = Cytotoxicity against human DWD cells by sulforhodamine B method
[2] = Cytotoxicity against human Gurav cells by sulforhodamine B method
ZR-75-1 = test: Cytotoxicity against human ZR-75-1 cells by sulforhodamine B method

Row | SMILES | GI50 (A2780) | GI50 (KB) | GI50 (HOP-62) | GI50 (SiHa) | GI50 (PC-3) | GI50 (A549) | GI50 (COLO 205) | GI50 (MCF7) | GI50 [1] | GI50 [2] | GI50 (ZR-75-1)
1 | COc1cc2c(cc1OCCCCCOc1ccc3c(c1)CC[C@@H]1[C@@H]3CC[C@]3(C)[C@@H](O)CC[C@@H]13)N=C[C@@H]1CC(F)(F)CN1C2=O | 2120 nM | 140 nM | 2110 nM | 2810 nM | 2420 nM | 2810 nM | 200 nM | 170 nM | 2170 nM | 2190 nM | 190 nM
2 | COc1cc2c(cc1OCCCN1CCN(CCCOc3ccc4c(c3)CC[C@@H]3[C@@H]4CC[C@]4(C)[C@@H](O)CC[C@@H]34)CC1)N=C[C@@H]1CC(F)(F)CN1C2=O | 110 nM | 170 nM | 150 nM | 160 nM | 130 nM | 120 nM | 140 nM | < 100 nM | 100 nM | 130 nM | 120 nM
3 | COc1cc2c(cc1OCc1cn(CCCCCOc3ccc4c(c3)CC[C@@H]3[C@@H]4CC[C@]4(C)[C@@H](O)CC[C@@H]34)nn1)N=C[C@@H]1CCCN1C2=O | 170 nM | 800 nM | 1690 nM | 1170 nM | 190 nM | 190 nM | 170 nM | 140 nM | 170 nM | 180 nM | 110 nM
4 | COc1cc2c(cc1OCCCCCOc1ccc3c(c1)CC[C@@H]1[C@@H]3CC[C@]3(C)[C@@H](O)CC[C@@H]13)N=C[C@@H]1C[C@@H](F)CN1C2=O | 190 nM | 2170 nM | 190 nM | 2310 nM | 190 nM | 180 nM | 170 nM | 150 nM | 1900 nM | 180 nM | 170 nM
5 | COc1cc2c(cc1OCc1cn(CCCOc3ccc4c(c3)CC[C@@H]3[C@@H]4CC[C@]4(C)[C@@H](O)CC[C@@H]34)nn1)N=C[C@@H]1CCCN1C2=O | 170 nM | 310 nM | 1180 nM | 1140 nM | 190 nM | 180 nM | 170 nM | 120 nM | 160 nM | 170 nM | 190 nM
6 | COc1cc2c(cc1OCCCCCOc1ccc3c(c1)CC[C@@H]1[C@@H]3CC[C@]3(C)[C@@H](O)CC[C@@H]13)N=C[C@@H]1CCCN1C2=O | 1190 nM | 2130 nM | 2240 nM | 2180 nM | 2190 nM | 2200 nM | 190 nM | 170 nM | 180 nM | 2040 nM | 1190 nM
7 | COc1cc2c(cc1OCCCCCN1CCN(CCCCCOc3ccc4c(c3)CC[C@@H]3[C@@H]4CC[C@]4(C)[C@@H](O)CC[C@@H]34)CC1)N=C[C@@H]1CCCN1C2=O | 1700 nM | 190 nM | 1170 nM | 170 nM | 190 nM | 160 nM | 1160 nM | 140 nM | 170 nM | 190 nM | 170 nM
8 | COc1cc2c(cc1OCCCCCN1CCN(CCCCCOc3ccc4c(c3)CC[C@@H]3[C@@H]4CC[C@]4(C)[C@@H](O)CC[C@@H]34)CC1)N=C[C@@H]1C[C@@H](F)CN1C2=O | 110 nM | 140 nM | 130 nM | 160 nM | 170 nM | 110 nM | 140 nM | 130 nM | 150 nM | 130 nM | < 100 nM
9 | COc1cc2c(cc1OCCCOc1ccc3c(c1)CC[C@@H]1[C@@H]3CC[C@]3(C)[C@@H](O)CC[C@@H]13)N=C[C@@H]1CC(F)(F)CN1C2=O | 2100 nM | 150 nM | 2110 nM | 2810 nM | 2400 nM | 2810 nM | 100 nM | 170 nM | 2040 nM | 2180 nM | 180 nM
